Format in all cases: cell-based
One data set deals with Pseudomonas aeruginosa. The experiment in a line: Antibacterial efficacy on peptide pre-treated contact lenses. Conditions: lens pre-treated with 250 μM peptide for 2 hours. As for the experimental part: Referring to FIG. 2, there is shown a bar graph illustrating growth of Pseudomonas aeruginosa overnight on Johnson and Johnson Acuvue contact lenses following pre-treatment with polypeptide GIN 1p, or a control treatment. Growth was measured by examination by light microscopy, and by assessing metabolic activity of any bacteria present using MTT reduction. The data illustrates the efficacy of the antibacterial nature of the peptides according to the invention when applied to contact lenses. Antibacterial activity was assessed by measuring MTT reduction.
Lenses were placed in 24-well plates before treatment with 75 μl of 250 μM GIN-1p in PBS (pH7.4) or with 75 μl of PBS and incubated for 2 hours at […], before removal of these solutions from the lens by aspiration. A further 1 ml of PBS was then added to the wells to wash away any loosely attached peptide, before aspiration of this wash solution. […]
The plates were returned to the incubator at 37° C. overnight. […] The degree of formazan production was assessed by measuring absorbance at 540 nm for aliquots of these solutions; these values are shown in FIG. 2, and represent the average for four lenses, with the bars showing standard deviation. […]

For data set [1], the system named is Saccharomyces cerevisiae yeast cells (strain GenT01). The experiment in a line: Gentronix GreenScreen GC yeast genotoxicity assay. Conditions: concentrations up to and including 100 μM, FIGS. 6A-6C. The procedure:
A liquid handling robot is used to produce a serial dilution series of each test compound in a 96-well, black microplate with an optically clear base. […] In addition, a series of genotoxic and cytotoxic standards and non-toxic controls are run to provide internal quality control. The plates are covered with a breathable membrane and incubated overnight, without shaking, at 25° C.
After incubation, the microplates are uncovered and data collected using a Tecan Ultra 384 microplate reader. This instrument provides measurements of light absorbance and fluorescence in microplates; a standard fluorescein filter set (excitation 485/25 and emission 535/25) is used. Absorbance is read at 620 nm and is proportional to cell proliferation (which is lowered by toxic analytes). Fluorescence is proportional to the activity of the DNA repair system (increased by genotoxic analytes). The yeast cultures used are a genetically modified strain that express a green fluorescent protein whenever the cells carry out DNA damage repair. Fluorescence is normalised to the absorbance signal to correct for variation in cell yield caused by any cytolytic activity of the test compounds against the yeast cells. This produces a “fluorescence per cell” measurement termed “brightness”. In addition to the Gentronix Assay yeast strain (GenT01), a control Saccharomyces cerevisiae strain (GenC01) is also used, which is identical except for its ability to produce green fluorescent protein is disabled. This strain is used to provide a control to allow correction for substances which may be either autofluorescent themselves or which induce an autofluorescence in the yeast cells. The data collected is simply transferred into a Excel template where result evaluation sheets are automatically produced. The sheets contain the processed results in both a graphical and tabulated format, with automatic assessment of the result, i.e. positive or negative, and calculation of the lowest effective concentration (LEC), for both genotoxicity and cytotoxicity. […]

The test system of data set [2] is Staphylococcus aureus, Pseudomonas aeruginosa, and Streptococcus pneumoniae. The experiment in a line: Antibacterial activity, overall statements over the test bacteria. In short, it runs like this:
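Serial peptide dilutions in LB broth inoculated with planktonic bacteria diluted to give log-phase growth, incubated overnight; growth read as absorbance at 620 nm. Percent inhibition versus untreated wells plotted against concentration to derive IC50.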

“Also recorded” adds a separate entry of the source.

Regarding Ac-LRKLRKRLLLRKLRKRLL-NH2 [MU_10], the “Appearance of solution containing pre-treated contact lens after overnight incubation” value with Pseudomonas aeruginosa (10^4 challenge organisms, FIG. 3) was “colourless”. Also, the “Bacterial growth on contact lens surface by light micrograph after overnight incubation” value in the data set on Pseudomonas aeruginosa (FIG. 4) is recorded as “minimal bacterial growth”. The “Genotoxic response in test yeast strain (GenT01)” value in data set [1] was “failed to produce any genotoxic response”. The “Antibacterial activity, in words, bacterium not specified” value in data set [2] is given as “particularly effective; also recorded: much greater than that of MU43”.

The values are drawn from patent US8524861B2, “Treatment of bacterial infections” (priority 2004, dated 2013).
